US20220119354A1, “DIAMINO-SUBSTITUTED PYRIDINES AND PYRIMIDINES AS HERBICIDES” (FMC Corporation, priority 2019, published 2022)

Legend:
Type in all cases: in vivo
[1] = tested on: barnyardgrass (Echinochloa crus-galli); assay: Test A preemergence, barnyardgrass; conditions: 0 to 100 scale, 0 is no effect, 100 is complete control
In short: (§1)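 Greenhouse test; plants at one- to two-leaf stage (2–10 cm) sprayed postemergence with compound in non-phytotoxic solvent/surfactant mix, or soil sprayed preemergence after seeding in loam–sand blend. Injury rated visually versus untreated controls after about 10 d, 0 (no effect) to 100 (complete control).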

[2] = tested on: pigweed (Amaranthus retroflexus); assay: Test A preemergence, pigweed; conditions: 0 to 100 scale, 0 is no effect, 100 is complete control
In short: as §1

kochia (Kochia scoparia) [3] = assay: Test A postemergence, kochia; conditions: 0 to 100 scale; for Plant response rating, Kochia: 125 g ai/ha, 0 no effect, 100 complete control; for Kochia plant response rating: 500 g ai/ha, 0 is no effect, 100 is complete control
In short: as §1

[4] = tested on: sedge, umbrella (small-flower umbrella sedge, Cyperus difformis); assay: Test B flooded paddy test, umbrella sedge; conditions: Flood, 250 g ai/ha, applied to paddy water, 2-leaf stage, visual evaluation after 13 to 15 d
In short: (§2)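 Plants grown to 2-leaf stage. Compounds applied directly into paddy water flooded 3 cm above soil, with that depth kept throughout. After 13–15 d in greenhouse, visual rating versus controls on a 0–100 scale (0 no effect, 100 complete control).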

corn (Zea mays) = assay: Test A postemergence, corn; conditions: 0 to 100 scale; for Plant response rating, Corn: 125 g ai/ha, 0 no effect, 100 complete control; for Corn plant response rating: 500 g ai/ha, 0 is no effect, 100 is complete control
In short: as §1

[5] = tested on: barnyardgrass (Echinochloa crus-galli); assay: Test A postemergence, barnyardgrass; conditions: 0 to 100 scale; for Plant response rating, Barnyardgrass: 125 g ai/ha, 0 no effect, 100 complete control; for Barnyardgrass plant response rating: 500 g ai/ha, 0 is no effect, 100 is complete control
In short: as §1

[6] = tested on: ryegrass, Italian (Lolium multiflorum); assay: Test A postemergence, Italian ryegrass; conditions: 0 to 100 scale; for Plant response rating, Ryegrass, Italian: 125 g ai/ha, 0 no effect, 100 complete control; for Ryegrass, Italian plant response rating: 500 g ai/ha, 0 is no effect, 100 is complete control
In short: as §1

[7] = tested on: pigweed (Amaranthus retroflexus); assay: Test A postemergence, pigweed; conditions: 0 to 100 scale; for Plant response rating, Pigweed: 125 g ai/ha, 0 no effect, 100 complete control; for Pigweed plant response rating: 500 g ai/ha, 0 is no effect, 100 is complete control
In short: as §1

[8] = tested on: ragweed (common ragweed, Ambrosia elatior); assay: Test A postemergence, ragweed; conditions: 0 to 100 scale; for Plant response rating, Ragweed: 125 g ai/ha, 0 no effect, 100 complete control; for Ragweed plant response rating: 500 g ai/ha, 0 is no effect, 100 is complete control
In short: as §1

[9] = tested on: ragweed (common ragweed, Ambrosia elatior); assay: Test A preemergence, ragweed; conditions: 0 to 100 scale, 0 is no effect, 100 is complete control
In short: as §1

[10] = tested on: ryegrass, Italian (Lolium multiflorum); assay: Test A preemergence, Italian ryegrass; conditions: 0 to 100 scale, 0 is no effect, 100 is complete control
In short: as §1

[11] = tested on: blackgrass (Alopecurus myosuroides); assay: Test A postemergence, blackgrass; conditions: 0 to 100 scale; for Plant response rating, Blackgrass: 125 g ai/ha, 0 no effect, 100 complete control; for Blackgrass plant response rating: 500 g ai/ha, 0 is no effect, 100 is complete control
In short: as §1

[12] = tested on: wheat (Triticum aestivum); assay: Test A postemergence, wheat; conditions: 0 to 100 scale; for Plant response rating, Wheat: 125 g ai/ha, 0 no effect, 100 complete control; for Wheat plant response rating: 500 g ai/ha, 0 is no effect, 100 is complete control
In short: as §1

kochia (Kochia scoparia) [13] = assay: Test A preemergence, kochia; conditions: 0 to 100 scale, 0 is no effect, 100 is complete control
In short: as §1

[14] = tested on: ducksalad (Heteranthera limosa); assay: Test B flooded paddy test, ducksalad; conditions: Flood, 250 g ai/ha, applied to paddy water, 2-leaf stage, visual evaluation after 13 to 15 d
In short: as §2

[15] = tested on: barnyardgrass (Echinochloa crus-galli); assay: Test B flooded paddy test, barnyardgrass; conditions: Flood, 250 g ai/ha, applied to paddy water, 2-leaf stage, visual evaluation after 13 to 15 d
In short: as §2

[16] = tested on: foxtail, giant (Setaria faberii); assay: Test A postemergence, giant foxtail; conditions: 0 to 100 scale; for Plant response rating, Foxtail, Giant: 125 g ai/ha, 0 no effect, 100 complete control; for Foxtail, Giant plant response rating: 500 g ai/ha, 0 is no effect, 100 is complete control
In short: as §1

[17] = tested on: galium (catchweed bedstraw, Galium aparine); assay: Test A postemergence, galium; conditions: 0 to 100 scale; for Plant response rating, Galium: 125 g ai/ha, 0 no effect, 100 complete control; for Galium plant response rating: 500 g ai/ha, 0 is no effect, 100 is complete control
In short: as §1

rice (Oryza sativa) = assay: Test B flooded paddy test, rice; conditions: Flood, 250 g ai/ha, applied to paddy water, 2-leaf stage, visual evaluation after 13 to 15 d
In short: as §2

[18] = tested on: foxtail, giant (Setaria faberii); assay: Test A preemergence, giant foxtail; conditions: 0 to 100 scale, 0 is no effect, 100 is complete control
In short: as §1

SMILES	Barnyardgrass plant response rating ([1]; 125 g ai/ha)	Barnyardgrass plant response rating ([1]; 500 g ai/ha)	Pigweed plant response rating ([2]; 125 g ai/ha)	Pigweed plant response rating ([2]; 500 g ai/ha)	Plant response rating, Kochia (kochia (Kochia scoparia) [3])	Kochia plant response rating (kochia (Kochia scoparia) [3])	Plant response rating, Sedge, Umbrella (0 to 100 scale, 0 is no effect, 100 is complete control) [4]	Plant response rating, Corn (corn (Zea mays))	Corn plant response rating (corn (Zea mays))	Plant response rating, Barnyardgrass [5]	Barnyardgrass plant response rating [5]	Plant response rating, Ryegrass, Italian [6]	Ryegrass, Italian plant response rating [6]	Plant response rating, Pigweed [7]	Pigweed plant response rating [7]	Plant response rating, Ragweed [8]	Ragweed plant response rating [8]	Ragweed plant response rating ([9]; 125 g ai/ha)	Ragweed plant response rating ([9]; 500 g ai/ha)	Ryegrass, Italian plant response rating ([10]; 125 g ai/ha)	other results
C[C@@H](Nc1ncc(C(F)(F)F)c(N)n1)c1csc2ccccc12 [Compound 41]	40	90	80	100	70	90	65	10	20	0	50	20	70	90	100	60	90	90	100	20	Ryegrass, Italian plant response rating ([10]; 500 g ai/ha): 80; Plant response rating, Blackgrass [11]: 0; Blackgrass plant response rating [11]: 0; Plant response rating, Wheat [12]: 0; Wheat plant response rating [12]: 0; Kochia plant response rating (kochia (Kochia scoparia) [13]; 125 g ai/ha): 70; Kochia plant response rating (kochia (Kochia scoparia) [13]; 500 g ai/ha): 90; Plant response rating, Ducksalad (0 to 100 scale, 0 is no effect, 100 is complete control) [14]: 35; Plant response rating, Barnyardgrass (0 to 100 scale, 0 is no effect, 100 is complete control) [15]: 15; Plant response rating, Foxtail, Giant [16]: 50; Foxtail, Giant plant response rating [16]: 100; Plant response rating, Galium [17]: 50; Galium plant response rating [17]: 70; Plant response rating, Rice (0 to 100 scale, 0 is no effect, 100 is complete control) (rice (Oryza sativa)): 0; Foxtail, Giant plant response rating ([18]; 125 g ai/ha): 30; Foxtail, Giant plant response rating ([18]; 500 g ai/ha): 90
C[C@H](Nc1ncc(C(F)(F)F)c(N)n1)c1csc2ccccc12 [Compound 42]	0	0	0	0	0	0	0	0	0	30	0	0	0	0	0	30	0	0	0	0	Ryegrass, Italian plant response rating ([10]; 500 g ai/ha): 0; Plant response rating, Blackgrass [11]: 20; Blackgrass plant response rating [11]: 0; Plant response rating, Wheat [12]: 0; Wheat plant response rating [12]: 0; Kochia plant response rating (kochia (Kochia scoparia) [13]; 125 g ai/ha): 0; Kochia plant response rating (kochia (Kochia scoparia) [13]; 500 g ai/ha): 0; Plant response rating, Ducksalad (0 to 100 scale, 0 is no effect, 100 is complete control) [14]: 0; Plant response rating, Barnyardgrass (0 to 100 scale, 0 is no effect, 100 is complete control) [15]: 0; Plant response rating, Foxtail, Giant [16]: 0; Foxtail, Giant plant response rating [16]: 0; Plant response rating, Galium [17]: 20; Galium plant response rating [17]: 20; Plant response rating, Rice (0 to 100 scale, 0 is no effect, 100 is complete control) (rice (Oryza sativa)): 0; Foxtail, Giant plant response rating ([18]; 125 g ai/ha): 0; Foxtail, Giant plant response rating ([18]; 500 g ai/ha): 0
CC[C@@H](Nc1ncc(C(F)(F)F)c(N)n1)c1cc2ccccc2s1 [Compound 43]	70	70	90	100	90	90	0	0	20	20	100	40	40	100	100	60	90	100	100	20	Ryegrass, Italian plant response rating ([10]; 500 g ai/ha): 50; Plant response rating, Blackgrass [11]: 0; Blackgrass plant response rating [11]: 20; Plant response rating, Wheat [12]: 0; Wheat plant response rating [12]: 0; Kochia plant response rating (kochia (Kochia scoparia) [13]; 125 g ai/ha): 90; Kochia plant response rating (kochia (Kochia scoparia) [13]; 500 g ai/ha): 100; Plant response rating, Ducksalad (0 to 100 scale, 0 is no effect, 100 is complete control) [14]: 0; Plant response rating, Barnyardgrass (0 to 100 scale, 0 is no effect, 100 is complete control) [15]: 0; Plant response rating, Foxtail, Giant [16]: 30; Foxtail, Giant plant response rating [16]: 100; Plant response rating, Galium [17]: 70; Galium plant response rating [17]: 90; Plant response rating, Rice (0 to 100 scale, 0 is no effect, 100 is complete control) (rice (Oryza sativa)): 0; Foxtail, Giant plant response rating ([18]; 125 g ai/ha): 80; Foxtail, Giant plant response rating ([18]; 500 g ai/ha): 90
CC[C@H](Nc1ncc(C(F)(F)F)c(N)n1)c1cc2ccccc2s1 [Compound 44]	0	40	20	20	0	50	0	0	0	0	0	0	0	0	60	0	0	20	50	0	Ryegrass, Italian plant response rating ([10]; 500 g ai/ha): 0; Plant response rating, Blackgrass [11]: 0; Blackgrass plant response rating [11]: 20; Plant response rating, Wheat [12]: 0; Wheat plant response rating [12]: 0; Kochia plant response rating (kochia (Kochia scoparia) [13]; 125 g ai/ha): 0; Kochia plant response rating (kochia (Kochia scoparia) [13]; 500 g ai/ha): 0; Plant response rating, Ducksalad (0 to 100 scale, 0 is no effect, 100 is complete control) [14]: 0; Plant response rating, Barnyardgrass (0 to 100 scale, 0 is no effect, 100 is complete control) [15]: 0; Plant response rating, Foxtail, Giant [16]: 0; Foxtail, Giant plant response rating [16]: 10; Plant response rating, Galium [17]: 0; Galium plant response rating [17]: 0; Plant response rating, Rice (0 to 100 scale, 0 is no effect, 100 is complete control) (rice (Oryza sativa)): 0; Foxtail, Giant plant response rating ([18]; 125 g ai/ha): 0; Foxtail, Giant plant response rating ([18]; 500 g ai/ha): 20
C[C@@H](Nc1ncc(C(F)(F)F)c(N)n1)c1cc2ccc(F)cc2s1 [Compound 46]	20	90	100	100	90	90	95	0	60	20	60	0	40	100	100	50	80	80	100	20	Ryegrass, Italian plant response rating ([10]; 500 g ai/ha): 80; Plant response rating, Blackgrass [11]: 20; Blackgrass plant response rating [11]: 30; Plant response rating, Wheat [12]: 0; Wheat plant response rating [12]: 0; Kochia plant response rating (kochia (Kochia scoparia) [13]; 125 g ai/ha): 90; Kochia plant response rating (kochia (Kochia scoparia) [13]; 500 g ai/ha): 100; Plant response rating, Ducksalad (0 to 100 scale, 0 is no effect, 100 is complete control) [14]: 30; Plant response rating, Barnyardgrass (0 to 100 scale, 0 is no effect, 100 is complete control) [15]: 40; Plant response rating, Foxtail, Giant [16]: 10; Foxtail, Giant plant response rating [16]: 60; Plant response rating, Galium [17]: 60; Galium plant response rating [17]: 90; Plant response rating, Rice (0 to 100 scale, 0 is no effect, 100 is complete control) (rice (Oryza sativa)): 10; Foxtail, Giant plant response rating ([18]; 125 g ai/ha): 70; Foxtail, Giant plant response rating ([18]; 500 g ai/ha): 100
